In assay [1] the test system is PC-3 human prostatic carcinoma cell line. The assay is described as follows: cells. Format: cell-based. The settings on record: for Cell number as a percentage of the control mean cell number / Cell no.: 1 μM AZP; for Cell no.: mean ± SE; for activity at 1 µM / EC50: Homo sapiens, Prostatic carcinoma cell; for activity at 1 µM: 192 h. Here is the method:
FIG. 3. Effect of AZP on the growth of PC-3 cells with or without DFMO pretreatment. PC-3 cells (3×10^4) were plated in 60-mm^2 Petri dish in RPMI 1640-10% FCS and allowed to attach overnight. The following day the medium was aspirated and replaced with RPMI 1640, 10% FCS, 100 μM aminoguanidine with or without 1 mm DFMO. Forty-eight h later the medium was aspirated, the dishes were rinsed once with HBSS, and the cells were incubated with RPMI 1640-10% FCS-100 μM aminoguanidine with or without 25 μM AZP for 1 h. Following the 1-h incubation the medium was aspirated, the plates were rinsed twice with HBSS, and the incubation was continued with fresh RPMI 1640-10% FCS-100 μM aminoguanidine. At the indicated times following initial plating the cells were lifted from the plate by trypsinization and were examined for their ability to exclude trypan blue. Total cell counts were obtained with the aid of a hemocytometer, and the completeness of the removal of the cells from the dish was verified by the examination of each dish with the inverted microscope. , control; Δ, DFMO; .circle., AZP; .quadrature., DFMO+AZP. Points, means; bars, SE.
FIG. 4. Dose-effect relationship of AZP on the growth on PC-3 prostatic cancer cells. PC-3 cells (3×10^4) were plated in RPMI 1640-10% FCS in 60-mm^2 Petri dishes and allowed to attach overnight. The following day the medium was aspirated and replaced with RPMI 1640-10% FCS-100 μM aminoguanidine with or without 1 mm DFMO. Forty-eight h later the medium was aspirated, and the cells were rinsed once with HBSS and replaced with RPMI 1640-10% FCS-100 μM aminoguanidine with or without the indicated μM concentrations of AZP. After a 1-h incubation the medium was aspirated, the cells were rinsed twice with HBSS, and the incubation was continued with fresh RPMI 1640-10% FCS-100 μM aminoguanidine. Eight days following plating the cells were lifted from the plates by trypsinization and were counted with the aid of a hemocytometer and expressed as a percentage of control (100% without DFMO, 212±31×10^4; 100% with DFMO pretreatment, 219±25× 10^4 cells, respectively). , DFMO pretreated; .circle., without DFMO.
Assays of cell growth were performed by plating 3×10^4 PC-3 cells in RPMI 1640 medium with 10% FCS and allowing them to attach overnight. The following morning the medium was replaced with incubation medium consisting of RPMI 1640, 10% FCS, 100 μM aminoguanidine, 100 units/ml of penicillin, 100 μg/ml of streptomycin, and 2 mM glutamine, with or without 1 mM difluoromethylornithine. Two days later the medium was aspirated and replaced with or without 1-(4-aminobutyl) aziridine at the designated concentration usually for 1 h or for the designated length of time. Following the 1-h incubation, the medium of all groups was aspirated and the dishes were rinsed with HBSS and replaced with fresh incubation medium. Either daily or 8 days following plating, the Petri dishes were rinsed with HBSS and the cells were lifted from the plate by trypsinization. The dishes were examined for completeness of cell removal by examination with an inverted microscope. The cells were counted with a Zeiss microscope using a hemocytometer. Tumor cell population doubling time was determined by ploting the natural logarithm (ln) of the number of cells versus the days following plating. The slope of this line was determined using the Memorial Sloan-Kettering Cancer Center Clin computer system statistical analysis package. Doubling time (DT) was determined as ln 2/slope=DT. Statistical differences in cell number between groups were determined by Student's t statistic with the aid of the Memorial Sloan-Kettering Cancer Center Clin computer using the statistics program.
^a Thirty thousand PC3 cells were plated in 60mm^2 Petri dishes i
RPMI 164010% FCS. The next day the medium was aspirated and replaced with
RPMI 164010% FCS medium with 100 μM aminoguanidine with or without 1 m
DFMO. Fortyeight h later the medium was aspirated. […]

Assay [2] concerns uptake of [14C]putrescine into PC-3 cells. Format: cell-based, human. The settings on record: PC-3 cells. Here is the method:
FIG. 1. Lineweaver-Burk plot of the uptake of [^14 C]putrescine by DFMO-pretreated cells. The ordinate is expressed as 1/pmol/15 min. The abscissa is expressed as 1 μM concentrations containing from 16 to 1.0 μM [^14 C]putrescine.
Fifty thousand PC-3 cells were plated in 12-well plates and 18 h later the incubation medium was removed and replaced with 1 ml or RPMI 1640 medium containing 25 mM 4-(2-hydroxyethyl)-1-piperazineethansulfonic acid buffer, 100 μM aminoguanidine, and 10% FCS. Forty-eight h later the medium was replaced with medium which contained [^14 C]putrescine in concentrations ranging from 16 to 1.0 μM with or without 5 1M 1-(4-aminobutyl) aziridine. Following incubation at 37° C. for 15 min the [^14 C]putrescine-containing medium was aspirated, and the cells were rinsed rapidly 4 times with HBSS. Following the last rinse, 1.0 ml of a solution of 0.1N NaOH was added and after a 2-h incubation at room temperature a 0.2-ml aliquot was added to 1 ml of 2% glacial acidic acid and 10 ml of Scintiverse 1 scintillation cocktail and the radioactive disintegrations were determined with a Packard Tri-Carb 300 scintillation spectrophotometer. Counting efficiency for ^14 C was 80%. Kinetic analysis of uptake was performed by graphic methods as described by Dixon and Webb, Enzymes, p. 322, New York Academic Press (1959).
In FIG. 1 a Lineweaver-Burk plot of the uptake of [^14 C]-putrescine into the PC-3 cells is presented and was used to determine the Km (intercept x axis) and Vmax (intercept y axis) for putrescine.

Setting [3] is: 2 h incubation, DFMO pretreated, day 8.
Setting [4] is: 4 h incubation, DFMO pretreated, day 8.

Structures are written as SMILES. Like-named read-outs stand apart in the source and are kept apart here.

For the molecule `NCCCCN1CC1` [AZP, 1-(4-aminobutyl) aziridine], the “Cell number as a percentage of the control mean cell number” value was 73% in assay [1] (1 h incubation, DFMO pretreated, day 8); 52% in assay [1] (setting [3]); 32% in assay [1] (setting [4]); around 9% in assay [1] (8 h incubation, DFMO pretreated, day 8); 0.9% in assay [1] (24 h incubation, DFMO pretreated, day 8). Further, the Cell no. was 236 ± 8 × 10^-4 in assay [1] (1 h incubation, no DFMO (Control), day 8); 114 ± 10 × 10^-4 in assay [1] (setting [3]); 202 ± 11 × 10^-4 in assay [1] (2 h incubation, no DFMO (Control), day 8); 70 ± 8 × 10^-4 in assay [1] (setting [4]); 122 ± 16 × 10^-4 in assay [1] (8 h incubation, no DFMO (Control), day 8); 30 ± 11 × 10^-4 in assay [1] (24 h incubation, no DFMO (Control), day 8). In addition, the “Cell no. as a percentage of control” value in assay [1] (DFMO-pretreated PC-3 (1 mM, 48 h), single agent 1 h (Put 100 μM or AZP 10 μM), day 8) is reported as 9%. The activity at 1 µM was 98% in assay [1] (read-out: Cell number as a percentage of the control mean cell number, 1 μM AZP, 1 h incubation, no DFMO (Control), day 8); 84% in assay [1] (read-out: Cell number as a percentage of the control mean cell number, 1 μM AZP, 2 h incubation, no DFMO (Control), day 8); 66% in assay [1] (read-out: Cell number as a percentage of the control mean cell number, 1 μM AZP, 4 h incubation, no DFMO (Control), day 8); 51% in assay [1] (read-out: Cell number as a percentage of the control mean cell number, 1 μM AZP, 8 h incubation, no DFMO (Control), day 8); around 12% in assay [1] (read-out: Cell number as a percentage of the control mean cell number, 1 μM AZP, 24 h incubation, no DFMO (Control), day 8). Also, the EC50 in assay [1] (read-out: 50% effective dose (cell growth), PC-3, 1 h exposure, counted 8 days after plating, 1 mM DFMO pretreatment 48 h) was found to be 2100 nM; in assay [1] (read-out: 50% effective dose (cell growth), PC-3, 1 h exposure, counted 8 days after plating, without DFMO), 18000 nM. Besides, the “Cells per dish on day 8 following plating” value in assay [1] (PC-3, 3×10^4 plated, ±1 mM DFMO 48 h, ±25 μM AZP 1 h, mean±SD of triplicates) was 123±10 ×10^4 cells per dish. Further, in assay [1] (PC-3, 25 μM AZP 1 h or 1 mM DFMO 48 h, mean±SE), the Doubling time worked out at 1.53 ± 0.06 days. In addition, the “Growth-inhibitory activity toward PC-3 cells (in words)” value in assay [1] (brief 1-h exposure) is listed as “definitely growth inhibitory”. Also, the “Type of inhibition of putrescine uptake” value in assay [2] is reported as “consistent with competitive inhibition”. In addition, the Ki in assay [2] (with or without difluoromethylornithine pretreatment, 5 1M AZP, read-out: Apparent Ki for inhibition of putrescine uptake) stood at 1000 nM.

The record behind these values is patent US4925835A, “Aziridinyl putrescine containing compositions and their uses in treating prostate cancer” (priority 1987, dated 1990).
